What is called IC50 is the concentration that gives 50% inhibition. The solubility is the dissolved amount per volume that the medium holds. A lower solubility goes with a poorly soluble substance.

Results on 3 compounds are retold here after US11981951B2, “Process for the production of methyl methacrylate” (Mitsubishi Chemical UK Limited, priority 2016, dated 2024).

Values after ≈ are worked out from the molar mass of the structure shown. Where two headings read alike, the source gives them in different places.

For data set [1], the system named is E. coli strain MG1655. The data set can be described thus: Growth inhibition (methacrylate ester toxicity) test, E. coli. It counts as cell-based. The conditions noted are these: Escherichia coli.
Data set [2] relates to S. cerevisiae strain DSM70449. The data set can be described thus: Growth inhibition (methacrylate ester toxicity) test, S. cerevisiae. It counts as cell-based. The conditions noted are these: Saccharomyces cerevisiae, read-out: IC50 range.
Data set [3] can be described thus: logPo/w (1-octanol/water partition coefficient). It counts as physicochemical. The source says:
In embodiments, the organic solvent has a logPo/w value of greater than or equal to 3.0. More preferably, the organic solvent has a logPo/w value of greater than or equal to 3.6, 3.7, 3.8, 3.9 or 4.0. logPo/w is defined as the logarithm of the partition coefficient of a particular solvent between a standardized 1:1 mixture of 1-octanol and water. The present inventors have shown that, with increasing logPo/w value there is a decrease in the resultant microorganism toxicity. Particularly preferred solvents are higher alkanes of C6 and above which may be linear or branched, cyclic alkanes of C7 and above and aromatic compounds, particularly benzene, substituted with one or more substituents of C3 and above, particularly alkyl substituents which may be linear or branched.

The nature of data set [4]: Extraction of BMA and MMA from biotransformation medium into dodecane (GC-FID). The class given is physicochemical. The conditions noted are these: for average amount extracted into dodecane: across all samples. How it is done: The samples from the BMA/MMA extraction experiments were analysed using gas chromatography under the following operating conditions:
Biomass was harvested from each flask and a separate biotransformation conducted. BMA and MMA levels in dodecane following solvent extraction was quantified by gas chromatography flame ionization detector (GC-FID).
In a 1 I baffled shake flask, a starter culture of 200 ml LB medium containing 200 µg/ml ampicillin was grown for 16.33 hours. The culture was back diluted to OD600 0.2 into 5 1 I baffled shake flasks containing 300 ml fresh LB medium and left to grow at 30° C. and 250 rpm for 23.35 hours. The biomass was then harvested by centrifugation at 5000 rpm and 4° C. for 15 minutes. Each cell pellet was washed with 100 mM sodium phosphate (pH 6.7) and the centrifugation step was repeated. The biomass was resuspended in the required volume of biotransformation medium until an OD600 of 25 was reached.
Biotransformation reactions were conducted in 5×250 ml sealed Schott bottles at 30° C. and 180 rpm for 24 hours.
Samples were taken for GC-FID analysis at 5 hour and 24 hour time points. At each time point 5 ml sample was removed and transferred to a 15 ml falcon tube. Acetonitrile (5 ml) was added in addition to dodecane (1 ml). The mixture was vigorously shaken at >800 rpm for 10 minutes before centrifugation at 3900 rpm and 20° C. for 20 minutes. A 500 μl sample was taken from both the organic and aqueous phases, filtered through a 0.45 μm filter and placed in a crimped lid gas chromatography vial prior to injection.
Quantification of BMA and MMA levels in biotransformation samples was achieved by using external standard calibration […] obtained by preparing volumetric stock solutions of BMA and MMA at known concentrations.

A short description of data set [5]: Solubility limit in the fermentation medium. The class given is physicochemical. The settings on record: plasma or biological fluid. How it is done:
In embodiments where the C3-C12 methacrylate ester is butyl methacrylate, it is particularly preferred that the titre of butyl methacrylate in the fermentation medium is at least 120, 130, 140, 150 or 200 mg/l. […] At such a concentration, the need for an additional extraction solvent may be negated.

Where [6] appears, read: MG1655, E. coli grown in MSX medium, from final biomass concentrations, read-out: IC50 range.
The mark [7] stands for this setting: E. coli MG1655 in LB complex medium, final biomass after 72 hours, concentration that halves MaxOD600, read-out: IC50 range.
Where [8] appears, read: S. cerevisiae DSM70449 in YEPD complex medium, final biomass after 72 hours, concentration that halves MaxOD600.

As for `C=C(C)C(=O)OC` [MMA, methyl methacrylate], the IC50 in data set [1] (MG1655, 72 h, read-out: IC50 range) was 3190 to 4250 µg/mL (≈ 31.9 to 42.5 mM); in data set [1] (MG1655, read-out: IC50 range), 3190 to 4250 µg/mL (≈ 31.9 to 42.5 mM); in data set [2] (DSM70449, 72 h), 730 to 1450 µg/mL (≈ 7.29 to 14.5 mM). In data set [3] (1-octanol/water (1:1)), this compound registered a logPo/w of 0.95. In addition, in data set [4], the “average amount extracted into dodecane” value was ~10.5%.
For `C=C(C)C(=O)OC(C)C` [iPMA, isopropyl methacrylate], the values for the half-inhibitory concentration (IC50) in data set [1] (setting [6]), in data set [1] (setting [7]) and in data set [2] (setting [8]) were 1180 to 1770 µg/mL (≈ 9.21 to 13.8 mM), 1180 to 1770 µg/mL (≈ 9.21 to 13.8 mM) and 660 to 990 µg/mL (≈ 5.15 to 7.72 mM), respectively. For the same compound, the logPo/w in data set [3] amounted to 1.81.
`C=C(C)C(=O)OCCCC` [BMA, butyl methacrylate]: the IC50 in data set [1] (setting [6]) was 70 to 110 µg/mL (≈ 0.492 to 0.774 mM); in data set [1] (setting [7]), 70 to 110 µg/mL (≈ 0.492 to 0.774 mM); in data set [2] (setting [8]), 40 to 70 µg/mL (≈ 0.281 to 0.492 mM). This compound showed a logPo/w in data set [3] (1-octanol/water (1:1)) of 2.57. In data set [5], the solubility is ~220 µg/mL (≈ 1.55 mM). Besides, in data set [4], the “average amount extracted into dodecane” value is on record as “around 35.6%”. Besides, the “extraction efficiency into dodecane compared to MMA” value in data set [4] (biotransformations 2 and 3 (40 mg/l added)) amounted to 2.7 ×; in data set [4] (biotransformations 4 and 5 (100 mg/l added)) it was 3.3 ×.
